By Inhibition is commonly meant the change of the read-out against control, counted positive when it falls. As a reminder, the IC50 is the concentration that gives 50% inhibition. By inhibition in vivo is commonly meant the relative decrease from the control value, in per cent. Low values mean little suppression, high ones strong suppression.

The test system of experiment [1] is Mus musculus. The experiment can be described thus: In vivo ability to inhibit lipoteichoic acid (LTA)-induced neutrophil accumulation in murine pleurisy model at a dose of 30 mg/kg upon iv administration. Format: functional. To be noted: for Inhibition: 30 mg/kg; for inhibition in vivo at 30 mg/kg: Mus musculus, iv.
Experiment [2] addresses T1, E-selectin (Homo sapiens, UniProt P16581).
T1 sequence (P16581 whole entry): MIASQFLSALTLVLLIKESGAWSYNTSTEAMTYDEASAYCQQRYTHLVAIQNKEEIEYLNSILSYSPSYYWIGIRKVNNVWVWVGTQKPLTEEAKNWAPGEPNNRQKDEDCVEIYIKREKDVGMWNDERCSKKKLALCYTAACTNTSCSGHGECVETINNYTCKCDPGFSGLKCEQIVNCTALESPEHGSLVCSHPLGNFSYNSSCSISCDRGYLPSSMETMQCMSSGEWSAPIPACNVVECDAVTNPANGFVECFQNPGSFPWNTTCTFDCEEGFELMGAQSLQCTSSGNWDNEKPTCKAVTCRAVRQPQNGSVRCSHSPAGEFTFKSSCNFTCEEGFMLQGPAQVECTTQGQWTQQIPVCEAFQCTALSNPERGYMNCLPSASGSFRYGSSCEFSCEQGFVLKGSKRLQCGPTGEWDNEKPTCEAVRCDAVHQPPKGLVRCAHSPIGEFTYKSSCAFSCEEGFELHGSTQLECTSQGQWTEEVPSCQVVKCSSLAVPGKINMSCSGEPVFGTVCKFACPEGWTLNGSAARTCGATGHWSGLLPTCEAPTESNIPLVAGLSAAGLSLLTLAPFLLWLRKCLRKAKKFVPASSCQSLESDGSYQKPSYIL
Briefly: In vitro ability to inhibit the adhesion of HL-60 cells to purified recombinant human Selectin E. In kind it is cell-based.

`CCO[C@@H]1O[C@@H](CO)[C@@H](O[C@@H]2O[C@@H](C)[C@H](O)[C@H](O)[C@@H]2O)[C@H](O[C@@H]2O[C@@H](CO)[C@H](O)[C@H](O)[C@@H]2O)[C@@H]1NC(=O)c1ccc2ccccc2c1` (stereo in doubt; 4): the Inhibition in experiment [1] was determined as 62%. Also, the IC50 in experiment [2] is 2 mM.
The compound `CCO[C@@H]1O[C@@H](CO)[C@@H](O[C@@H]2O[C@H](C)[C@H](O)[C@H](O)[C@@H]2O)[C@H](O[C@@H]2O[C@@H](CO)[C@H](O)[C@H](O)[C@@H]2O)[C@@H]1NC(C)=O` (stereo in doubt; 3) gave an inhibition in vivo at 30 mg/kg in experiment [1] of 51%. Besides, the IC50 in experiment [2] was 1.4 mM.
For `CCO[C@@H]1O[C@@H](CO)[C@@H](O[C@@H]2O[C@@H](CO)[C@H](O)C(O)[C@@H]2O)C(O[C@@H]2O[C@@H](C)[C@@H](O)[C@H](O)[C@@H]2O)[C@@H]1NC(=O)c1ccc2ccccc2c1` (single isomer, unassigned) the same measures were 3% and > 6.6 mM.
On to `CCO[C@@H]1O[C@@H](CO)[C@@H](O[C@@H]2O[C@H](C)[C@H](O)[C@H](O)[C@@H]2O)[C@H](O[C@@H]2O[C@@H](CO)[C@H](O)[C@H](O)[C@@H]2O)[C@@H]1NC(C)=O` (stereo in doubt; 1), for which the Inhibition in experiment [1] was 37%. For the same compound, the IC50 in experiment [2] is > 6.6 mM.
`CCO[C@@H]1O[C@@H](CO)[C@@H](O[C@@H]2O[C@@H](CO)[C@H](O)C(O)[C@@H]2O)C(O[C@@H]2O[C@@H](C)[C@@H](O)[C@H](O)[C@@H]2O)[C@@H]1NC(C)=O` (single isomer, unassigned) registered an inhibition in vivo at 30 mg/kg in experiment [1] of 31%. Also, the IC50 in experiment [2] is > 6.6 mM.
For `CCO[C@@H]1O[C@@H](CO)[C@@H](O[C@@H]2O[C@@H](C)[C@H](O)[C@H](O)[C@@H]2O)[C@H](O[C@@H]2O[C@@H](CO)[C@H](O)[C@H](O)[C@@H]2O)[C@@H]1NC(=O)c1ccc2ccccc2c1` (stereo in doubt; 2) the same measures were 49% and > 6.6 mM.

The values above are taken from ChEMBL document CHEMBL1129151, “Stereoselective synthesis of lewis-associated trisaccharides as E-selectin inhibitors” (Bioorg Med Chem Lett, 1996).
